According to PMC6009956, “Design, synthesis and biological activity of N^4-phenylsubstituted-7H-pyrrolo[2,3-d]pyrimidin-4-amines as dual inhibitors of aurora kinase A and epidermal growth factor receptor kinase” (Journal of Enzyme Inhibition and Medicinal Chemistry, 2017):
Like-named read-outs stand apart in the source and are kept apart here.

How the values were obtained:
AURKA = biological target: T1, AURKA (Homo sapiens, UniProt O14965); experiment: DiscoverX competition binding assay, AURKA; conditions: read-out: Binding constant (Kd) AURKA
T1 construct: purchased DiscoverX Corporation (assay run externally by the vendor)
T1 sequence (O14965 1-403): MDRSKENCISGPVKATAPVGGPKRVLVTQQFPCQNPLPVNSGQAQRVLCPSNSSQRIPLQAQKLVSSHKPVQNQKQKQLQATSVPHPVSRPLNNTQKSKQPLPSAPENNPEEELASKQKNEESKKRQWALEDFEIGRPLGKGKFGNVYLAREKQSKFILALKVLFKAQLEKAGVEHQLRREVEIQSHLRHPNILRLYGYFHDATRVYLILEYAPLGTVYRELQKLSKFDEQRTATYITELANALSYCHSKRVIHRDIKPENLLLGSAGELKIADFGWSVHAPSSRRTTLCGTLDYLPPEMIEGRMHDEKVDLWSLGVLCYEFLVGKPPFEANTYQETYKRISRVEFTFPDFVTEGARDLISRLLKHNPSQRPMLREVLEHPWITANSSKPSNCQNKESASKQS
Experimental: The assay was performed externally at DiscoverX Corporation using a competition binding assay that quantitatively measures the ability of a compound to compete with an immobilised, active-site directed ligand[24]. The assay is performed by combining three components: DNA-tagged kinase, immobilised ligand and a test compound. The ability of the test compound to compete with the immobilised ligand was measured via quantitative PCR of the DNA tag. An 11-point 3-fold serial dilution of each test compound was prepared in 100% of DMSO at 100× final test concentration and subsequently diluted to 1× in the assay (final DMSO concentration = 1%). […] Binding constants (Kd) were calculated with a standard dose-response curve using the Hill equation.
Binding Affinities for EGFR, AURKA and AURKB
The assay was performed externally at DiscoverX Corporation using a competition binding assay that quantitatively measures the ability of a compound to compete with an immobilized, active-site directed ligand for target kinases AURKA, AURKB and EGFR.23 The assay is performed by combining three components: DNA-tagged kinase; immobilized ligand; and a test compound. The ability of the test compound to compete with the immobilized ligand was measured via quantitative PCR of the DNA tag. […] Compound Kds were determined using a compound top […]

CAL cells = experiment: Cell killing, PI staining and FACS, CAL; type: cell-based; conditions: 100 µM, 72 h
Experimental: (§1) FADU, BHY, SAS and CAL cell lines were obtained from ATCC-LGC and were cultured in DMEM (Invitrogen, Germany) supplemented with 10% of heat activated bovine serum (FBS, PAA, Germany), 1% of glutamine, 1% of penicillin-streptomycin (Invitrogen, Germany). To measure proliferation, SCCHN cells were split, reseeded (5 × 10^5 in 25 cm^2 flasks) and counted at the indicated time points. Cells were then replated at the initial density. The fold increase in cell number was calculated, all given results are based on triplicate experiments. To assess cell death 5 × 10^5 cells were stained with propidium iodide (PI, Sigma, Germany). Following incubation, cells were washed, resuspended in PBS, and analysed by flow cytometry. The fraction of PI-positive cells is reported as dead cell fraction.
(§2) Figure 3. […] Cells were incubated with compound 2 for 48 h and then subjected to PI staining and FACS analysis. PI-positive cell fraction as measure of cell death is reported. (B) Four SCCHN cell lines were incubated with 100 μM of compound 2 and counted on the indicated days. Experiments in triplicates, fold growth shown. (C) EGFR expression of SCCHN cell lines. EGFR high and low as detected by western blot analysis (D) The SCCHN cell lines were incubated with 100 μM of compound 2 for 72 h. Percent PI positive cells are given. Experiments in triplicates.

aurora A kinase (AURKA) = biological target: T2, aurora A kinase (AURKA) (Homo sapiens, UniProt O14965); experiment: ADP-Glo kinase assay, Aurora A; type: biochemical
T2 construct: purchased BPS Bioscience (assay run externally by the vendor)
T2 sequence (O14965 1-403): T1 sequence (O14965 1-403)

[1] = system: Phosphorylated histone H3 (p-HH3) in BHY and FADU SCCHN cell lines; experiment: Western blot of p-HH3 in BHY and FADU cells; type: cell-based; conditions: 100 μM
Experimental: Protein extracts (50 μg per lane) were electrophoretically separated on SDS-PAGE gels, transferred to membranes (Protran, Schleicher & Schuell, Dassel, Germany) and blotted with specific antibodies (actin, aurora A, aurora B: all from Sigma, Munich, Germany; S10-HH3: Millipore, Schwalbach, Germany; EGFR: Santa Cruz, Heidelberg, Germany; pEGFR: Invitrogen, Darmstadt, Germany; pAKT, pERK: both from New England Biolabs, Frankfurt, Germany).
Figure 4. Effects of compound 2 on EGFR and aurora kinases in growing SCCHN cell lines (A) Western blot analysis of EGFR (pEGFR, pERK, p-AKT) and aurora A (p-HH3) downstream target proteins following incubation with 100 μM compound 2 for the indicated time points in BHY and FADU SCCHN cell lines. (B) BHY and CAL cell lines treated for the indicated time points with 200 nM cetuximab. Western blot analysis of EGFR downstream targets. (long exposure and short exposure). […] Western blot analysis of p-HH3 at the indicated time points. Asterisk (*) represents unspecific band.

BHY cells = experiment: Cell killing, PI staining and FACS, BHY; type: cell-based
Experimental: as §1, §2

Brc1cccc(Nc2ncnc3[nH]ccc23)c1 [Compound 2, N^4-(3-bromophenyl)-7H-pyrrolo[2,3-d]pyrimidine-4-amine]
Kd (AURKA): 3400 nM
Cell killing (PI positive cells) (CAL cells): efficient cell killing
IC50 (aurora A kinase (AURKA); 10 µM ATP, triplicate, read-out: AURKA IC50 ± SD): 1990 ± 50 nM
IC50 (aurora A kinase (AURKA); 10 µM ATP/0.2 mg/ml Kemptide, read-out: Aurora A IC50 (dose-response curve, supplement)): 2000 nM
Aurora A % Activity Set1 (aurora A kinase (AURKA); Log[nM] 0): 107%
Aurora A % Activity Set2 (aurora A kinase (AURKA); Log[nM] 0): 94%
Aurora A % Activity Set3 (aurora A kinase (AURKA); Log[nM] 0): 94%
Aurora A % Activity Set1 (aurora A kinase (AURKA); Log[nM] 1.0): 109%
Aurora A % Activity Set2 (aurora A kinase (AURKA); Log[nM] 1.0): 97%
Aurora A % Activity Set3 (aurora A kinase (AURKA); Log[nM] 1.0): 96%
Aurora A % Activity Set1 (aurora A kinase (AURKA); Log[nM] 1.5): 109%
Aurora A % Activity Set2 (aurora A kinase (AURKA); Log[nM] 1.5): 96%
Aurora A % Activity Set3 (aurora A kinase (AURKA); Log[nM] 1.5): 101%
Aurora A % Activity Set1 (aurora A kinase (AURKA); Log[nM] 2.0): 102%
Aurora A % Activity Set2 (aurora A kinase (AURKA); Log[nM] 2.0): 97%
Aurora A % Activity Set3 (aurora A kinase (AURKA); Log[nM] 2.0): 105%
Aurora A % Activity Set1 (aurora A kinase (AURKA); Log[nM] 2.5): 94%
Aurora A % Activity Set2 (aurora A kinase (AURKA); Log[nM] 2.5): 88%
Aurora A % Activity Set3 (aurora A kinase (AURKA); Log[nM] 2.5): 95%
Aurora A % Activity Set1 (aurora A kinase (AURKA); Log[nM] 3.0): 70%
Aurora A % Activity Set2 (aurora A kinase (AURKA); Log[nM] 3.0): 66%
Aurora A % Activity Set3 (aurora A kinase (AURKA); Log[nM] 3.0): 69%
Aurora A % Activity Set1 (aurora A kinase (AURKA); Log[nM] 3.5): 35%
Aurora A % Activity Set2 (aurora A kinase (AURKA); Log[nM] 3.5): 34%
Aurora A % Activity Set3 (aurora A kinase (AURKA); Log[nM] 3.5): 34%
Aurora A % Activity Set1 (aurora A kinase (AURKA); Log[nM] 4.0): 16%
Aurora A % Activity Set2 (aurora A kinase (AURKA); Log[nM] 4.0): 14%
Aurora A % Activity Set3 (aurora A kinase (AURKA); Log[nM] 4.0): 14%
Aurora A % Activity Set1 (aurora A kinase (AURKA); Log[nM] 4.5): 6%
Aurora A % Activity Set2 (aurora A kinase (AURKA); Log[nM] 4.5): 5%
Aurora A % Activity Set3 (aurora A kinase (AURKA); Log[nM] 4.5): 5%
Aurora A % Activity Set1 (aurora A kinase (AURKA); Log[nM] 5.0): 5%
Aurora A % Activity Set2 (aurora A kinase (AURKA); Log[nM] 5.0): 5%
Aurora A % Activity Set3 (aurora A kinase (AURKA); Log[nM] 5.0): 5%
Effect on histone p-HH3 [1]: Modest effects
Cell killing (PI positive cells) (BHY cells; 100 µM, 72 h): efficient cell killing
IC50 (BHY cells; 48 h, read-out: IC50 cellular killing (PI-positive fraction)): 150000 nM
